{"source": "patent US10500166B2", "about": "“Methods for the treatment of erectile dysfunction using fispemifene” (QUATRX PHARMACEUTICALS, priority 2007, dated 2019)", "assay_type_in_all_cases": "in vivo, human", "key": {"LH (luteinizing hormone)": {"test_system": "LH (luteinizing hormone)", "test": "Example 3 study in hypogonadal men: serum LH (ITT)", "details": "for LH, Max / LH, Mean ± SD / LH, Median / LH, Min: Baseline (Visit 2)", "description": "A randomized, double-blind, placebo controlled, parallel-group study of once-daily doses of fispemifene (100, 200, and 300 mg/day) given for 4 weeks was conducted in a population of hypogonadal men. Subjects were required to meet all of the following inclusion criteria at screening and prior to randomization to be eligible for the study:\nThere were 77 subjects total. The number of subjects randomized to the 100 mg fispemifene, 200 mg fispemifene, 300 mg fispemifene, and placebo arms were 21, 21, 19, and 16, respectively.\nSubjects were randomly assigned to one of four treatment groups in a 1:1:1:1 ratio: • Treatment A (100 mg): fispemifene 100 mg+placebo+placebo; • Treatment B (200 mg): fispemifene 100 mg+fispemifene 100 mg+placebo; • Treatment C (300 mg): fispemifene 100 mg+fispemifene 100 mg+fispemifene 100 mg; and • Treatment D (Placebo): placebo+placebo+placebo.\nSubjects took one dose (three capsules) of study medication once a day at home for 4 weeks. Capsules were to be taken in the morning immediately after breakfast, with the exception of the morning of the Week 4 visit. Capsules were not to be taken on the morning of the Week 4 visit because trough plasma levels of fispemifene were determined by a blood sample taken at this visit. Each subject was randomly assigned to treatment with one of the 3 different dose regimens of fispemifene or placebo vehicle. Each subject received a 4 week supply of study drug.\nBlood samples were taken from the subjects within 1 week prior to dosing with study drug to establish baseline values; after 2 and 4 weeks of randomization; and 2 weeks after the last dose of study drug. Serum was prepared from those samples and used to determine the mean % change from baseline in total testosterone, free testosterone, SHBG (sex hormone-binding globulin), DHT (dihydrotestosterone), E2 (estradiol), LH (luteinizing hormone), FSH (follicle stimulating hormone), and inhibin B.\n3. Percent change from baseline in SHBG, DHT, E2, LH, FSH, inhibin B, and testosterone/E2 ratio at Weeks 2, 4, and 6."}, "[1]": {"test": "Phase I repeated dose study 101-50202: safety and tolerability", "description": "A suitable dosage is expected to be in a range of about 5 mg/day to about 1500 mg/day. In a phase I repeated dose study, twenty-three healthy men aged 50 to 70 years received daily 10 mg, 30 mg 100 mg and 300 mg dosages of fispemifene for 28 days. […] All other adverse events were single cases. Fispemifene at the 100 and 300 mg/day dose levels increased serum total testosterone levels 32% and 75% respectively. Thus, a preferred dosage range of fispemifene to treat ED is expected to be 10 to 1000 mg/day.\n(§1) Fispemifene has been studied in two phase I studies in humans—in a single dose and a repeated dose study. Effect of fispemifene on hormone levels was one main focus of the repeated dose study. The phase I repeated dose study (number 101-50202) was a randomized, double-blind, placebo-controlled 28-day dose-escalation study performed in 31 healthy, elderly men, aged 50-68 years. The main objective of the study was to investigate the tolerability, safety and pharmacokinetics of fispemifene after repeated oral doses, but the study focused also on the effects of fispemifene on serum free and total testosterone, estradiol, and other relevant hormones. The fispemifene doses 10, 30, 100 and 300 mg per day and placebo were administered once every morning as capsules containing 10 mg or 100 mg of fispemifene, or placebo.\n(§2) The variables for safety and tolerability were adverse events, vital signs, 12-lead ECG, clinical laboratory evaluations, physical examination, ultrasound examinations (mammary glands) and inhibin B. For pharmacokinetics, the concentrations of fispemifene and its metabolite(s) were to be evaluated. For pharmacodynamics, serum concentrations of FSH, LH, estradiol, testosterone, SHBG, prolactin, aldosterone, cortisol and TSH before and during treatment were measured and compared with the concentrations in the placebo-group."}, "SHBG": {"test_system": "SHBG", "test": "Phase I repeated dose study 101-50202: serum SHBG", "source_text": "as §1, §2"}, "[2]": {"details": "100 mg/day, to Week 6 (2 weeks after discontinuation)"}, "[3]": {"details": "200 mg/day, to Week 6 (2 weeks after discontinuation)"}, "[4]": {"details": "300 mg/day, to Week 6 (2 weeks after discontinuation)"}}}
{"compound": "OCCOCCOc1ccc(/C(=C(/CCCl)c2ccccc2)c2ccccc2)cc1", "note": "[Fispemifene, (Z)-2-{2-[4-(4-Chloro-1,2-diphenylbut-1-enyl)phenoxy]ethoxy}ethanol]", "values": [{"measurement": "LH, Max", "setting": "LH (luteinizing hormone); 100 mg/day", "value": 13.50, "unit": "IU/L"}, {"measurement": "LH, Mean ± SD", "setting": "LH (luteinizing hormone); 100 mg/day", "value": "4.43 ± 2.438", "unit": "IU/L"}, {"measurement": "LH, Median", "setting": "LH (luteinizing hormone); 100 mg/day", "value": 4.10, "unit": "IU/L"}, {"measurement": "LH, Min", "setting": "LH (luteinizing hormone); 100 mg/day", "value": 1.50, "unit": "IU/L"}, {"measurement": "LH, % Change from Baseline, Max", "setting": "LH (luteinizing hormone); 100 mg/day, to Week 2", "value": 141, "unit": "%"}, {"measurement": "LH, % Change from Baseline, Mean ± SD", "setting": "LH (luteinizing hormone); 100 mg/day, to Week 2", "value": "0.39 ± 0.00496", "unit": "%"}, {"measurement": "LH, % Change from Baseline, Median", "setting": "LH (luteinizing hormone); 100 mg/day, to Week 2", "value": 29, "unit": "%"}, {"measurement": "LH, % Change from Baseline, Max", "setting": "LH (luteinizing hormone); 100 mg/day, to Week 4", "value": 203, "unit": "%"}, {"measurement": "LH, % Change from Baseline, Median", "setting": "LH (luteinizing hormone); 100 mg/day, to Week 4", "value": 49, "unit": "%"}, {"measurement": "LH, % Change from Baseline, Max", "setting": "LH (luteinizing hormone); [2]", "value": 100, "unit": "%"}, {"measurement": "LH, % Change from Baseline, Median", "setting": "LH (luteinizing hormone); [2]", "value": 0, "unit": "%"}, {"measurement": "LH, Max", "setting": "LH (luteinizing hormone); 200 mg/day", "value": 11.60, "unit": "IU/L"}, {"measurement": "LH, Mean ± SD", "setting": "LH (luteinizing hormone); 200 mg/day", "value": "4.25 ± 2.028", "unit": "IU/L"}, {"measurement": "LH, Median", "setting": "LH (luteinizing hormone); 200 mg/day", "value": 3.60, "unit": "IU/L"}, {"measurement": "LH, Min", "setting": "LH (luteinizing hormone); 200 mg/day", "value": 1.00, "unit": "IU/L"}, {"measurement": "LH, % Change from Baseline, Max", "setting": "LH (luteinizing hormone); 200 mg/day, to Week 2", "value": 123, "unit": "%"}, {"measurement": "LH, % Change from Baseline, Median", "setting": "LH (luteinizing hormone); 200 mg/day, to Week 2", "value": 54, "unit": "%"}, {"measurement": "LH, % Change from Baseline, Max", "setting": "LH (luteinizing hormone); 200 mg/day, to Week 4", "value": 137, "unit": "%"}, {"measurement": "LH, % Change from Baseline, Median", "setting": "LH (luteinizing hormone); 200 mg/day, to Week 4", "value": 52, "unit": "%"}, {"measurement": "LH, % Change from Baseline, Max", "setting": "LH (luteinizing hormone); [3]", "value": 80, "unit": "%"}, {"measurement": "LH, % Change from Baseline, Median", "setting": "LH (luteinizing hormone); [3]", "value": 19, "unit": "%"}, {"measurement": "LH, Max", "setting": "LH (luteinizing hormone); 300 mg/day", "value": 8.00, "unit": "IU/L"}, {"measurement": "LH, Mean ± SD", "setting": "LH (luteinizing hormone); 300 mg/day", "value": "3.62 ± 1.506", "unit": "IU/L"}, {"measurement": "LH, Median", "setting": "LH (luteinizing hormone); 300 mg/day", "value": 3.20, "unit": "IU/L"}, {"measurement": "LH, Min", "setting": "LH (luteinizing hormone); 300 mg/day", "value": 1.90, "unit": "IU/L"}, {"measurement": "LH, % Change from Baseline, Max", "setting": "LH (luteinizing hormone); 300 mg/day, to Week 2", "value": 134, "unit": "%"}, {"measurement": "LH, % Change from Baseline, Median", "setting": "LH (luteinizing hormone); 300 mg/day, to Week 2", "value": 63, "unit": "%"}, {"measurement": "LH, % Change from Baseline, Max", "setting": "LH (luteinizing hormone); 300 mg/day, to Week 4", "value": 178, "unit": "%"}, {"measurement": "LH, % Change from Baseline, Median", "setting": "LH (luteinizing hormone); 300 mg/day, to Week 4", "value": 42, "unit": "%"}, {"measurement": "LH, % Change from Baseline, Max", "setting": "LH (luteinizing hormone); [4]", "value": 84, "unit": "%"}, {"measurement": "LH, % Change from Baseline, Median", "setting": "LH (luteinizing hormone); [4]", "value": 19, "unit": "%"}, {"measurement": "effect on serum LH levels", "setting": "LH (luteinizing hormone); hypogonadal men, 100-300 mg/day for 4 weeks", "value": "increased"}, {"measurement": "adverse events reported more than once", "setting": "[1]; 10, 30, 100 and 300 mg daily for 28 days", "value": "upper respiratory tract infection, nausea and abdominal pain"}, {"measurement": "tolerability", "setting": "[1]; 10, 30, 100 and 300 mg daily for 28 days, all dose levels", "value": "well tolerated"}, {"measurement": "safety concerns", "setting": "[1]; any dose (10-300 mg/day)", "value": "no safety concerns"}, {"measurement": "Serum SHBG, Mean", "setting": "SHBG; 10 mg/day, Baseline", "value": 47.7, "unit": "nmol/L"}, {"measurement": "Serum SHBG, Mean", "setting": "SHBG; 10 mg/day, Day 8", "value": 46.3, "unit": "nmol/L"}, {"measurement": "Serum SHBG, Mean", "setting": "SHBG; 10 mg/day, Day 15", "value": 48.2, "unit": "nmol/L"}, {"measurement": "Serum SHBG, Mean", "setting": "SHBG; 10 mg/day, Day 22", "value": 50.2, "unit": "nmol/L"}, {"measurement": "Serum SHBG, Mean", "setting": "SHBG; 10 mg/day, Day 28", "value": 45.2, "unit": "nmol/L"}, {"measurement": "Serum SHBG, Mean", "setting": "SHBG; 30 mg/day, Baseline", "value": 34.2, "unit": "nmol/L"}, {"measurement": "Serum SHBG, Mean", "setting": "SHBG; 30 mg/day, Day 8", "value": 34.2, "unit": "nmol/L"}, {"measurement": "Serum SHBG, Mean", "setting": "SHBG; 30 mg/day, Day 15", "value": 37.4, "unit": "nmol/L"}, {"measurement": "Serum SHBG, Mean", "setting": "SHBG; 30 mg/day, Day 22", "value": 37.2, "unit": "nmol/L"}, {"measurement": "Serum SHBG, Mean", "setting": "SHBG; 30 mg/day, Day 28", "value": 36.6, "unit": "nmol/L"}, {"measurement": "Serum SHBG, Mean", "setting": "SHBG; 100 mg/day, Baseline", "value": 41.7, "unit": "nmol/L"}, {"measurement": "Serum SHBG, Mean", "setting": "SHBG; 100 mg/day, Day 8", "value": 47.7, "unit": "nmol/L"}, {"measurement": "Serum SHBG, Mean", "setting": "SHBG; 100 mg/day, Day 15", "value": 52.0, "unit": "nmol/L"}, {"measurement": "Serum SHBG, Mean", "setting": "SHBG; 100 mg/day, Day 22", "value": 55.7, "unit": "nmol/L"}, {"measurement": "Serum SHBG, Mean", "setting": "SHBG; 100 mg/day, Day 28", "value": 50.8, "unit": "nmol/L"}, {"measurement": "Serum SHBG, Mean", "setting": "SHBG; 300 mg/day, Baseline", "value": 50.7, "unit": "nmol/L"}, {"measurement": "Serum SHBG, Mean", "setting": "SHBG; 300 mg/day, Day 8", "value": 64.2, "unit": "nmol/L"}, {"measurement": "Serum SHBG, Mean", "setting": "SHBG; 300 mg/day, Day 15", "value": 66.2, "unit": "nmol/L"}, {"measurement": "Serum SHBG, Mean", "setting": "SHBG; 300 mg/day, Day 22", "value": 65.2, "unit": "nmol/L"}, {"measurement": "Serum SHBG, Mean", "setting": "SHBG; 300 mg/day, Day 28", "value": 58.3, "unit": "nmol/L"}, {"measurement": "effect on serum concentration of SHBG", "setting": "SHBG; during the 28 days of treatment", "value": "increased"}]}
